This is an account of results in ChEMBL document CHEMBL6071136, “Discovery of macrocyclic covalent inhibitors for severe acute respiratory syndrome coronavirus 2 3CL protease” (Bioorg Med Chem, 2024).

The target in data set [1] is Replicase polyprotein 1ab (Severe acute respiratory syndrome coronavirus 2, UniProt P0DTD1). In words: Inhibition of SARS-CoV-2 3CL protease using Dabcyl-KTSAVLQSGFRKM-(Edans) as substrate preincubated for 30 mins followed by substrate addition and measured after 60 mins by fluorescence based microplate reader assay.
Data set [2] in a line: Apparent permeability across apical to basolateral side in human Caco-2 cells incubated for 2 hrs by LC-MS/MS analysis. Format: ADME, cell-based. On the technique in general: Passage across Caco-2 layers is used to estimate intestinal permeability.
Data set [3] is described as follows: Metabolic stability in human liver S9 fraction assessed as half life measured upto 60 mins by LC/MS-MS analysis. The class given is ADME, subcellular.
A further data set relates to SARS-CoV-2. Description: microbe, parasite or virus in culture. The following applies: Severe acute respiratory syndrome coronavirus 2, Huh-7, 24 h.
Data set [4] in a line: Efflux ratio of apparent permeability across basolateral to apical side over apical to basolateral side in human Caco-2 cells. Format: ADME, cell-based.
Data set [5] in a line: Metabolic stability in human liver microsomes assessed as half life measured upto 60 mins in presence of NADPH by LC/MS-MS analysis. Format: ADME, Microsome. For orientation: Liver microsomes are a subcellular fraction often used to study metabolism.
Data set [6] can be described thus: Tmax in Sprague-Dawley rat at 10 mg/kg, po measured upto 24 hrs by LC/MS-MS analysis. Format: ADME, organism-based. Conditions: in vivo.
Data set [7] is described as follows: Cmax in Sprague-Dawley rat at 10 mg/kg, po measured upto 24 hrs by LC/MS-MS analysis. Format: ADME, organism-based. Conditions: in vivo.
Data set [8] can be described thus: AUClast in Sprague-Dawley rat at 10 mg/kg, po measured upto 24 hrs by LC/MS-MS analysis. The class given is ADME, organism-based. Conditions: in vivo.
Data set [9] can be described thus: Half-life in Sprague-Dawley rat at 10 mg/kg, po measured upto 24 hrs by LC/MS-MS analysis. The class given is ADME, organism-based. Conditions: in vivo.
The nature of data set [10]: Metabolic stability in rat liver microsomes assessed as half life measured upto 60 mins in presence of NADPH by LC/MS-MS analysis. Format: ADME, Microsome.
A short description of data set [11]: Stability of compound in FaSSGF at 10 uM measured after 4 hrs by LC-MS analysis. Format: physicochemical.
Data set [12] in a line: AUClast in Sprague-Dawley rat at 50 mg/kg, po measured upto 24 hrs by LC/MS-MS analysis. The class given is ADME, organism-based. The following applies: in vivo.
The nature of data set [13]: Cmax in Sprague-Dawley rat at 50 mg/kg, po measured upto 24 hrs by LC/MS-MS analysis. The following applies: in vivo. Format: ADME, organism-based.
Data set [14] is described as follows: Tmax in Sprague-Dawley rat at 50 mg/kg, po measured upto 24 hrs by LC/MS-MS analysis. Format: ADME, organism-based. Conditions: in vivo.
Data set [15] in a line: Half-life in Sprague-Dawley rat at 50 mg/kg, po measured upto 24 hrs by LC/MS-MS analysis. The class given is ADME, organism-based. Conditions: in vivo.

The IC50 is the concentration that gives 50% inhibition. As a reminder, the Papp A→B is how fast a substance crosses the layer from the apical side. For orientation: half-life means the time needed for the level to fall by half in the phase considered. Usually EC50 stands for the concentration needed to bring the measured effect to its halfway point. A word on the efflux ratio: it is the permeability from basolateral to apical divided by that in the opposite direction, in the common usage. For the compound `CC1(C)COC(=O)[C@@H]2C[C@@H](C[C@@H](C#N)NC(=O)[C@@H]3[C@@H]4[C@H](CN3C(=O)[C@H]1NC(=O)OC1CC1)C4(C)C)C(=O)N2`, in data set [1], half-maximal inhibition (IC50) was put at 0.017 µM. The apical-to-basolateral permeability (Papp A→B) at 2 h in data set [2] was 0.08 ×10⁻⁶ cm/s. Besides, the half-life in [3] and in [5] was above 180 min each time. A half-maximal response in the data set with SARS-CoV-2 (EC50) required 0.067 µM. The efflux ratio in [4] was 20.

In turn, `CC1(C)COC(=O)[C@@H]2C[C@@H](C[C@@H](C#N)NC(=O)[C@@H]3[C@@H]4[C@H](CN3C(=O)[C@H]1NC(=O)OCc1ccccc1)C4(C)C)C(=O)N2` gave an IC50 in data set [1] of 0.0064 µM. The Papp A→B at 2 h in data set [2] came out at 0.16 ×10⁻⁶ cm/s. Besides, in the data set on SARS-CoV-2, the EC50 was found to be 0.025 µM. For the same compound, the efflux ratio in data set [4] turned out to be 108. Further, the half-life in data set [5] came out at 6.5 min.

Broadly, the Tmax is the time at which the peak concentration occurs. In general, Cmax refers to the highest concentration seen after dosing. The AUC(0-t) is the area under the concentration-time curve up to a stated or last time point. Higher therefore signals more exposure. Take `CC1(C)COC(=O)[C@@H]2C[C@@H](C[C@@H](C#N)NC(=O)[C@@H]3[C@@H]4[C@H](CN3C(=O)[C@H]1NC(=O)C(F)(F)C1CC1)C4(C)C)C(=O)N2`: the Tmax in data set [6] came to 20 min. In [1], this compound gave an IC50 of 0.014 µM. In [7], this compound came in with a Cmax of 131 ng/mL. Besides, the AUC(0-t) at 24 h in data set [8] was found to be 119 ng·h/mL. The apical-to-basolateral permeability (Papp A→B) at 2 h in [2] stood at 0.13 ×10⁻⁶ cm/s. For the same compound, the EC50 with SARS-CoV-2 came out at 0.036 µM. For the same compound, the half-life was 38.5 min in [9], 71 min in [5] and 34.8 min in data set [10]. Besides, the efflux ratio in data set [4] is 96.4.

In data set [7], `CC(C)(C)[C@H](NC(=O)C(F)(F)F)C(=O)N1C[C@H]2[C@@H]([C@H]1C(=O)N[C@H](C#N)C[C@@H]1CCNC1=O)C2(C)C` returned a Cmax of 2840 ng/mL. In data set [8], the AUC(0-t) at 24 h amounted to 2020 ng·h/mL. In data set [2], the Papp A→B at 2 h was 0.27 ×10⁻⁶ cm/s. Also, the half-life was 76.2 min in data set [9], 20.6 min in data set [5] and 127 min in data set [10].

With `COC(=O)N[C@@H]1C(=O)N2C[C@H]3[C@@H]([C@H]2C(=O)N[C@H](C#N)C[C@@H]2C[C@H](NC2=O)C(=O)OCCC1(C)C)C3(C)C`, the midpoint of inhibition in [1], the IC50, lay at 0.0089 µM. The apparent permeability from apical to basolateral (Papp A→B) at 2 h in [2] was 0.03 ×10⁻⁶ cm/s. The compound also displayed a half-maximal effective concentration (EC50) in the data set on SARS-CoV-2 of 0.179 µM. In addition, the efflux ratio in data set [4] was 65. Also, the half-life in data set [5] is above 180 min.

As to `COC(=O)N[C@@H]1C(=O)N2C[C@H]3[C@@H]([C@H]2C(=O)N[C@H](C#N)C[C@@H]2C[C@H](NC2=O)C(=O)OCC1(C)C)C3(C)C`, in data set [6], the Tmax was 20 min. This compound returned a half-maximal inhibitory concentration (IC50) in data set [1] of 0.0086 µM. This compound also came in with a peak concentration (Cmax) in data set [7] of 87.5 ng/mL. The compound also showed an AUC(0-t) at 24 h in [8] of 72.9 ng·h/mL. Further, the apparent permeability from apical to basolateral (Papp A→B) at 2 h in [2] was 0.16 ×10⁻⁶ cm/s. The half-life in [3] was above 180 min; in data set [9], 68.4 min; in [5], above 180 min; in data set [10], 76.2 min. For the same compound, in the data set on SARS-CoV-2, a half-maximal effect (EC50) was put at 0.052 µM. The efflux ratio in [4] turned out to be 30. Moreover, the Stability result in data set [11] is reported as “Stable”.

With `CC1(C)COC(=O)[C@@H]2C[C@@H](C[C@@H](C#N)NC(=O)[C@@H]3[C@@H]4[C@H](CN3C(=O)[C@H]1NC(=O)C1CC1)C4(C)C)C(=O)N2`, the IC50 in [1] came out at 0.012 µM. Further, in data set [2], the Papp A→B at 2 h came to 0.08 ×10⁻⁶ cm/s. Besides, the half-life in [3] was above 180 min; in data set [5] it was 154 min. In addition, in the data set with SARS-CoV-2, the half-maximal effective concentration (EC50) was found to be 0.19 µM. Further, the efflux ratio in [4] amounted to 22.

`CC1(C)CCOC(=O)[C@@H]2C[C@@H](C[C@@H](C#N)NC(=O)[C@@H]3[C@@H]4[C@H](CN3C(=O)[C@H]1NC(=O)C(F)(F)F)C4(C)C)C(=O)N2`: the AUC(0-t) at 24 h turned out to be 72.9 ng·h/mL in [12] and 5.94 ng·h/mL in data set [8]. Moreover, the Cmax in [13] was 102 ng/mL; in [7], 16.2 ng/mL. Also, the Tmax in data set [14] amounted to 20 min; in data set [6] it was 15 min. The compound further registered an IC50 in [1] of 0.012 µM. Besides, the half-life in data set [15] is 28.3 min; in [9] it was 20 min; in data set [5], above 180 min; in data set [10], above 180 min. In addition, the apical-to-basolateral permeability (Papp A→B) at 2 h in data set [2] was 0.02 ×10⁻⁶ cm/s. The compound further showed an EC50 in the data set with SARS-CoV-2 of 0.026 µM. Also, in [4], the efflux ratio stood at 342. For the same compound, the Stability result in [11] is reported as “Stable”.

On to `CC1(C)CNC(=O)[C@@H]2C[C@@H](C[C@@H](C#N)NC(=O)[C@@H]3[C@@H]4[C@H](CN3C(=O)[C@H]1NC(=O)OCc1ccccc1)C4(C)C)C(=O)N2`, for which, in [1], half-maximal inhibition (IC50) required 0.0088 µM. In addition, the half-maximal effective concentration (EC50) in the data set on SARS-CoV-2 is 0.073 µM. For the same compound, the half-life in data set [5] and in [10] was 4.3 min throughout.

As to `CC1(C)COC(=O)[C@@H]2C[C@@H](C[C@@H](C#N)NC(=O)[C@@H]3[C@@H]4[C@H](CN3C(=O)[C@H]1NC(=O)C(F)(F)Cc1ccccc1)C4(C)C)C(=O)N2`, inhibition in [1] was half-maximal at 0.023 µM (IC50). Also, in [2], the Papp A→B at 2 h was determined as 0.08 ×10⁻⁶ cm/s. It took 0.049 µM to reach a half-maximal effect in the data set with SARS-CoV-2 (EC50). In addition, the efflux ratio in [4] came to 154. Moreover, the half-life in [5] turned out to be 1.7 min.

In data set [1], `CN1CC(C)(C)[C@H](NC(=O)OCc2ccccc2)C(=O)N2C[C@H]3[C@@H]([C@H]2C(=O)N[C@H](C#N)C[C@@H]2C[C@H](NC2=O)C1=O)C3(C)C` returned a half-inhibitory concentration (IC50) above 10 µM. Also, the Papp A→B at 2 h in [2] was found to be 0.17 ×10⁻⁶ cm/s. Besides, the half-life in data set [3] came to 0.17 min. In addition, the half-maximal effective concentration (EC50) with SARS-CoV-2 was above 10 µM. Besides, the efflux ratio in [4] is 12.

In turn, `CC1(C)COC(=O)[C@@H]2C[C@@H](C[C@@H](C#N)NC(=O)[C@@H]3[C@@H]4[C@H](CN3C(=O)[C@H]1NC(=O)C(F)(F)F)C4(C)C)C(=O)N2` displayed a half-inhibitory concentration (IC50) in [1] of 0.034 µM. Also, the apical-to-basolateral permeability (Papp A→B) at 2 h in [2] was 0.5 ×10⁻⁶ cm/s. The half-life in [3] and in data set [5] was above 180 min in each case. The compound further came in with an EC50 in the data set on SARS-CoV-2 of 0.181 µM. Further, in data set [4], the efflux ratio amounted to 34.
